Assay in all cases: microbe, parasite or virus in culture
What all share (type): cell-based

The test system of assay [1] is HCV 1b RLuc cells (dicistronic genotype 1b Con1 replicon, RLuc reporter). How it is done:
(§1) Evaluation of cell-based anti-HCV activity: Antiviral potency (EC50) was determined using a Renilla luciferase (RLuc)-based HCV replicon reporter assay. To perform the assay for genotype 1 and 2a JFH-1, HCV 1b RLuc cells (harboring a dicistronic genotype 1b Con1 replicon that encodes a RLuc reporter), or HCV 1a RLuc cells (harboring a dicistronic genotype 1a H77 replicon that encodes a RLuc reporter), or HCV 2a JFH-1 Rluc cells (harboring a dicistronic genotype 2a JFH-1 replicon that encodes a RLuc reporter) were dispensed into 384-well plates. To perform the assay for genotype 2a (with M31 present) or 2b, HCV 2a Rluc or 2b Rluc cells (both with M31 present) harboring a dicistronic NS5A chimeric genotype 2a JFH-1 replicon that encodes a RLuc reporter and either genotype 2a J6 strain NS5A gene or genotype 2b MD2b-1 NS5A gene (based on Los Alamos HCV database isolates, both with M31 present) respectively, were dispensed into 384-well plates. To perform the assay for genotype 3 and 4, HCV 3a RLuc or 4a Rluc cells harboring a dicistronic NS5A chimeric genotype 1b Con1 replicon that encodes a RLuc reporter and either a consensus genotype 3a NS5A gene or genotype 4a NS5A gene (based on Los Alamos HCV database isolates) respectively, were dispensed into 384-well plates. Compounds were re-suspended in DMSO at a concentration of 10 mM and serially diluted in DMSO either manually or using an automated pipeting instrument. Serially diluted compounds were mixed with cell culture media and added to the seeded cells. […] 72 hours later, cells were lysed and Renilla luciferase activity quantified as recommended by the manufacturer (Promega-Madison, Wis.). Non-linear regression was performed to calculate EC50 values.

Assay [2] has as its system HCV 2a JFH-1 Rluc cells (dicistronic genotype 2a JFH-1 replicon, RLuc reporter). The settings on record: genotype 2a JFH-1 replicon, RLuc reporter, read-out: 2a JFH. The procedure:
as §1
On the technique in general: A replicon is a self-replicating genome or part of one, used to study replication in cells.

The subject of assay [3] is HCV 3a RLuc cells (NS5A chimeric genotype 1b Con1 replicon with consensus genotype 3a NS5A gene). Particulars: Hepatitis C virus, read-out: 3a, genotype 3a NS5A chimeric 1b Con1 replicon. How it is done: as §1
The test system of assay [4] is HCV 1a RLuc cells (dicistronic genotype 1a H77 replicon, RLuc reporter). Particulars: genotype 1a H77 replicon, RLuc reporter, read-out: 1a. How it is done:
as §1

The mark [5] stands for this setting: Hepatitis C virus, read-out: 1b (nM).

Like-named read-outs stand apart in the source and are kept apart here. Some results are limits rather than exact numbers.

Regarding `COC(=O)N[C@H](C(=O)N1CCCC1c1ncc(-c2ccc3cc(-c4ccc(-c5cnc([C@@H]6CCCN6C(=O)[C@H](NC(=O)OC)c6ccccc6)[nH]5)cc4)ccc3c2)[nH]1)C1CCOCC1` (stereo partly shown) [Example 153], the EC50 is 0.012 nM in assay [1] (setting [5]), 0.001 to 0.999 nM in assay [2] (Hepatitis C virus), 0.001 to 0.99 nM in assay [3] and 0.001 to 0.999 nM in assay [4] (Hepatitis C virus).

Turning to `COC(=O)N[C@H](C(=O)N1CCC[C@H]1c1ncc(-c2ccc(-c3ccc4cc(-c5cnc(C6CCCN6C(=O)[C@H](NC(=O)OC)c6ccccc6)[nH]5)ccc4c3)cc2)[nH]1)C1CCOCC1` (stereo partly shown) [Example 154], the EC50 is 0.014 nM in assay [1] (setting [5]), 0.001 to 0.999 nM in assay [2] (Hepatitis C virus), 0.001 to 0.99 nM in assay [3] and 0.001 to 0.999 nM in assay [4] (Hepatitis C virus).

In the case of `CN(C)C(C(=O)N1CCC[C@H]1c1ncc(-c2ccc3cc(-c4ccc(-c5cnc([C@@H]6CCCN6C(=O)[C@H](C6CCOCC6)N(C)C)[nH]5)cc4)ccc3c2)[nH]1)c1ccccc1` (stereo partly shown) [Example 156], the EC50 in assay [1] (setting [5]) is 0.028 nM; in assay [2] (Hepatitis C virus), 0.001 to 0.999 nM; in assay [3] it was 0.001 to 0.99 nM; in assay [4] (Hepatitis C virus), 0.001 to 0.999 nM.

With `CCO[C@H]1C[C@@H](c2ncc(-c3ccc(-c4ccc5cc(-c6cnc([C@@H]7CCCN7C(=O)[C@@H](NC(=O)OC)C(C)C)[nH]6)ccc5c4)cc3)[nH]2)N(C(=O)[C@@H](c2ccccc2)N(C)C)C1` [Example 158], the EC50 is 0.01 nM in assay [1] (setting [5]), 0.001 to 0.999 nM in assay [2] (Hepatitis C virus), 0.001 to 0.99 nM in assay [3] and 0.001 to 0.999 nM in assay [4] (Hepatitis C virus).

For the compound `COC(=O)N[C@H](C(=O)N1CCC[C@H]1c1ncc(-c2ccc(-c3ccc4cc(-c5cnc([C@@H]6CCCN6C(=O)[C@@H](NC(=O)OC)C(C)C)[nH]5)ccc4c3)cc2)[nH]1)c1cccnc1` [Example 160], the EC50 in assay [1] (setting [5]) was 0.017 nM; in assay [2] (Hepatitis C virus) it was 0.001 to 0.999 nM; in assay [3] it was 0.001 to 0.99 nM; in assay [4] (Hepatitis C virus), 0.001 to 0.999 nM.

On to `COC(=O)N[C@H](C(=O)N1CCC[C@H]1c1ncc(-c2ccc3cc(-c4ccc(-c5cnc([C@@H]6CCCN6C(=O)[C@H](NC(=O)OC)c6cccnc6)[nH]5)cc4)ccc3c2)[nH]1)C(C)C` [Example 161], for which the EC50 is 0.019 nM in assay [1] (setting [5]), 0.001 to 0.999 nM in assay [2] (Hepatitis C virus), 0.001 to 0.99 nM in assay [3] and 0.001 to 0.999 nM in assay [4] (Hepatitis C virus).

With `COC(=O)N[C@H](C(=O)N1CCC[C@H]1c1ncc(-c2ccc3cc(-c4ccc(-c5cnc([C@@H]6CCCN6C(=O)[C@](C)(NC(=O)OC)c6ccccc6)[nH]5)cc4)ccc3c2)[nH]1)C(C)C` [Example 162], the EC50 was 0.01 nM in assay [1] (setting [5]), 1 to 44 nM in assay [2] (Hepatitis C virus), 1 to 4.99 nM in assay [3] and 1 to 44 nM in assay [4] (Hepatitis C virus).

As for `COC(=O)N[C@H](C(=O)N1CCC[C@H]1c1ncc(-c2ccc3cc(-c4ccc(-c5cnc([C@@H]6CCCN6C(=O)[C@@](C)(NC(=O)OC)c6ccccc6)[nH]5)cc4)ccc3c2)[nH]1)C(C)C` [Example 163], the EC50 is 0.031 nM in assay [1] (setting [5]), 1 to 44 nM in assay [2] (Hepatitis C virus), > 5 nM in assay [3] and 1 to 44 nM in assay [4] (Hepatitis C virus).

Turning to `COC(=O)N[C@@H](C)C(=O)N1CCC[C@H]1c1ncc(-c2ccc3cc(-c4ccc(-c5cnc([C@@H]6CCCN6C(=O)[C@H](NC(=O)OC)c6ccccc6)[nH]5)cc4)ccc3c2)[nH]1` [Example 164], the EC50 in assay [1] (setting [5]) is 0.01 nM; in assay [2] (Hepatitis C virus) it was 0.001 to 0.999 nM; in assay [3], 0.001 to 0.99 nM; in assay [4] (Hepatitis C virus), 0.001 to 0.999 nM.

For `CCN[C@@H](C(=O)N1CCC[C@H]1c1nc(-c2ccc(-c3ccc4cc(-c5c[nH]c([C@@H]6CCCN6C(=O)[C@@H](NC(=O)OC)C(C)C)n5)ccc4c3)cc2)c[nH]1)c1ccccc1` [Example 165], the EC50 in assay [1] (setting [5]) was 0.009 nM; in assay [2] (Hepatitis C virus), 0.001 to 0.999 nM; in assay [3], 0.001 to 0.99 nM; in assay [4] (Hepatitis C virus), 0.001 to 0.999 nM.

As for `COC(=O)N[C@H](C(=O)N1CCC[C@H]1c1nc2ccc(-c3ccc(-c4ccc5c(c4)CCc4nc([C@@H]6CCCN6C(=O)[C@H](NC(=O)OC)c6ccccc6)[nH]c4-5)cc3)cc2[nH]1)C(C)C` [Example 166], the EC50 in assay [1] (setting [5]) is 0.018 nM; in assay [2] (Hepatitis C virus) it was 0.001 to 0.999 nM; in assay [3] it was 0.001 to 0.99 nM; in assay [4] (Hepatitis C virus) it was 1 to 44 nM.

In the case of `COC(=O)N[C@H](C(=O)N1C[C@@H](C#N)C[C@H]1c1nc2ccc(-c3ccc(-c4ccc5c(c4)CCc4nc([C@@H]6CCCN6C(=O)[C@H](NC(=O)OC)c6ccccc6)[nH]c4-5)cc3)cc2[nH]1)C1CCOCC1` [Example 167], the EC50 in assay [1] (setting [5]) is 0.048 nM; in assay [2] (Hepatitis C virus), 0.001 to 0.999 nM; in assay [3] it was 0.001 to 0.99 nM; in assay [4] (Hepatitis C virus), 0.001 to 0.999 nM.

With `CCN(C1CC1)[C@@H](C(=O)N1CCC[C@H]1c1nc(-c2ccc(-c3ccc4cc(-c5c[nH]c([C@@H]6CCCN6C(=O)[C@@H](NC(=O)OC)C(C)C)n5)ccc4c3)cc2)c[nH]1)c1ccccc1` [Example 168], the EC50 in assay [1] (setting [5]) is 0.01 nM; in assay [2] (Hepatitis C virus), 1 to 44 nM; in assay [3], 0.001 to 0.99 nM; in assay [4] (Hepatitis C virus) it was 1 to 44 nM.

As to `COC(=O)N[C@H](C(=O)N1CCC[C@H]1c1ncc(-c2ccc3cc(-c4ccc5c(c4)CCc4nc([C@@H]6CCCN6C(=O)[C@H](NC(=O)OC)c6ccccc6)[nH]c4-5)ccc3c2)[nH]1)C1CCOCC1` [Example 170], the EC50 in assay [1] (setting [5]) is 0.032 nM; in assay [2] (Hepatitis C virus) it was 0.001 to 0.999 nM; in assay [3], 0.001 to 0.99 nM; in assay [4] (Hepatitis C virus), 0.001 to 0.999 nM.

`CCN(CC)[C@@H](C(=O)N1CCC[C@H]1c1ncc(-c2ccc(-c3ccc4cc(-c5cnc([C@@H]6CCCN6C(=O)[C@@H](NC(=O)OC)C6CCOCC6)[nH]5)ccc4c3)cc2)[nH]1)c1ccccc1` [Example 171]: the EC50 in assay [1] (setting [5]) was 0.026 nM; in assay [2] (Hepatitis C virus), 0.001 to 0.999 nM; in assay [3] it was 0.001 to 0.99 nM; in assay [4] (Hepatitis C virus), 0.001 to 0.999 nM.

For the compound `COC(=O)N[C@H](C(=O)N1CCC[C@H]1c1ncc(-c2ccc3cc(-c4ccc5c(c4)OCc4nc([C@@H]6CCCN6C(=O)[C@H](NC(=O)OC)c6ccccc6)[nH]c4-5)ccc3c2)[nH]1)C(C)C` [Example 172], the EC50 in assay [1] (setting [5]) was 0.011 nM; in assay [2] (Hepatitis C virus) it was 0.001 to 0.999 nM; in assay [3] it was 0.001 to 0.99 nM; in assay [4] (Hepatitis C virus), 0.001 to 0.999 nM.

Consider `COC(=O)N[C@H](C(=O)N1CCC[C@H]1c1ncc(-c2ccc3cc(-c4ccc5c(ccc6nc([C@@H]7CCCN7C(=O)[C@H](NC(=O)OC)c7ccccc7)[nH]c65)c4)ccc3c2)[nH]1)C1CCOCC1` [Example 173], for which the EC50 in assay [1] (setting [5]) is 0.024 nM; in assay [2] (Hepatitis C virus) it was 0.001 to 0.999 nM; in assay [3] it was 0.001 to 0.99 nM; in assay [4] (Hepatitis C virus), 0.001 to 0.999 nM.

For the compound `COC(=O)N[C@H](C(=O)N1CCC[C@H]1c1nc2c([nH]1)-c1ccc(-c3ccc4cc(-c5cnc([C@@H]6CCCN6C(=O)[C@H](NC(=O)OC)c6ccccc6)[nH]5)ccc4c3)cc1CC2)C1CCOCC1` [Example 174], the EC50 in assay [1] (read-out: 1b) is 0.015 nM; in assay [2], 0.001 to 0.999 nM; in assay [3], 0.001 to 0.99 nM; in assay [4] it was 0.001 to 0.999 nM.

On to `COC(=O)N[C@H](C(=O)N1CCC[C@H]1c1nc2ccc3cc(-c4ccc5cc(-c6cnc([C@@H]7CCCN7C(=O)[C@H](NC(=O)OC)c7ccccc7)[nH]6)ccc5c4)ccc3c2[nH]1)C1CCOCC1` [Example 175], for which the EC50 is 0.011 nM in assay [1] (setting [5]), 0.001 to 0.999 nM in assay [2] (Hepatitis C virus), 0.001 to 0.99 nM in assay [3] and 0.001 to 0.999 nM in assay [4] (Hepatitis C virus).

Turning to `COC(=O)N[C@H](C(=O)N1CCC[C@H]1c1nc2c([nH]1)COc1cc(-c3ccc4cc(-c5c[nH]c([C@@H]6CCCN6C(=O)[C@H](NC(=O)OC)c6ccccc6)n5)ccc4c3)ccc1-2)C(C)C` [Example 176], the EC50 in assay [1] (setting [5]) was 0.006 nM; in assay [2] (Hepatitis C virus), 0.001 to 0.999 nM; in assay [3], 0.001 to 0.99 nM; in assay [4] (Hepatitis C virus), 0.001 to 0.999 nM.

For `COC(=O)N[C@H](C(=O)N1CCC[C@H]1c1nc(-c2ccc(-c3ccc4cc(C5=CNC([C@@H]6CCCN6C(=O)[C@H](NC(=O)OC)c6ccccc6)N5)ccc4c3)cc2)c[nH]1)C1CCOCC1` (stereo partly shown) [Example 178], the EC50 in assay [1] (setting [5]) is 0.024 nM; in assay [2] (Hepatitis C virus) it was 0.001 to 0.999 nM; in assay [3], 0.001 to 0.99 nM; in assay [4] (Hepatitis C virus), 0.001 to 0.999 nM.

With `COC(=O)N[C@H](C(=O)N1CCC[C@H]1c1nc(-c2ccc3cc(-c4ccc(-c5c[nH]c([C@@H]6CCCN6C(=O)[C@@H](c6ccccc6)N(C6CC6)C6CC6)n5)cc4)ccc3c2)c[nH]1)C(C)C` [Example 179], the EC50 in assay [1] (setting [5]) is 0.041 nM; in assay [2] (Hepatitis C virus) it was 1 to 44 nM; in assay [3], > 5 nM; in assay [4] (Hepatitis C virus), 1 to 44 nM.

The values are drawn from patent publication US10344019B2 (priority 2010, dated 2019).
